Earlier results, collected in patent EP2566463B1, “EXTENDED RELEASE THIOCO[…]” (Ali Raif Ilac Sanayi Ve Ticaret A.S., priority 2010, dated 2011).

Columns and labels:
[1] = conventional, immediate release forms of thiocolchicoside
[2] = conventional, immediate release forms

Compound	Elimination half life in plasma [1] [h]	muscle relaxing effect starts [2] [h]
COc1c(O)cc2c(c1OC)-c1ccc(SC)c(=O)cc1C(NC(C)=O)CC2 (stereo not drawn) [3-Desmethylthiocolchicine]	4 to 5	–
N-[3-(β-D-glucopyranosyloxy)-1,2-dimethoxy-10-(methylthio)-9-oxo-5,6,7,9-tetrahydrobenzo[a]heptalen-7-yl]acetamide [thiocolchicoside]	4 to 5	1 to 2
